From patent US20110195910A1, “USE OF TOCOTRIENOL COMPOSITION FOR THE PREVENTION OF CANCER” (DAVOS LIFE SCIENCE PTE. LTD., priority 2008, published 2011)

Legend:
C32 cells = assay: Flow cytometry and western blotting, C32 cells; type: cell-based
Experimental: (§1) 1.1.3 Flow cytometry—Cell cycle distribution was examined using flow cytometry. Briefly, cells were harvested by trypsinization, fixed in 70% ethanol at 4° C. overnight, and then resuspended in PBS. After incubation at 4° C. for overnight, 2×10^6 cells were incubated with in 20 μg/ml propidium iodide (PI) and 2 mg RNaseA for 15 minutes at 37° C. Cells were then examined by BD SLRII cytometer and the results were analyzed using ModFit software (Becton Dickinson, Mountain View, Calif.). Data were expressed as the percentage of cell cycle distribution in the entire population.
(§2) 1.1.5 Western blotting—Detailed protocols have been described previously and are known in the art. Briefly, cell lysates were prepared by suspending cell pellets in lysis buffer [50 mmol/l Tris-HCl (pH 8.0), 150 mmol/l NaCl, 1% NP40, 0.5% deoxycholate, 0.1% SDS, 1 mg/ml aprotinin, 1 μg/ml leupeptin and 1 mmol/l phenylmethylsulfonyl fluoride]. For nuclear protein extraction, NucBuster™ protein extraction kit was used. Protein concentration was measured using the DC Protein Assay kit (Bio-Rad, Hercules, Calif.). Equal amount of protein (30 μg) was loaded onto a 10% SDS polyacrylamide gel for electrophoresis and then transferred onto a polyvinylidene difluoride membrane (Amersham, Piscataway, N.J.). The membrane was then incubated with primary antibodies for 1 hr at room temperature against E-cadherin (BD Biosciences, Bedford, Mass.), α-catenin, β-catenin, γ-catenin, Id-1, Id-3, EGFR, phosphor-c-jun, phosphor-ATF2, cleaved PARP, vimentin, α-smooth muscle actin, twist (Santa Cruz Biotechnology, Calif.), phosphor-IkB-alpha (Ser32/36), phosphor-IKK alpha (Seri 80)/IKK beta (Ser181), phosphor-SAPK/JNK (Thr183/Tyr185) G9, SAPK/JNK, NF-kB p65 (5A5) (Cell Signaling Technology Inc, Beverly, Mass.), Snail (Abcam). After incubation with appropriate secondary antibodies, signals were visualized by ECL western blotting system (Amersham, Piscataway, N.J.). Expression of β-actin and histone H1 were assessed as an internal loading control for total cell lysate and nuclear protein lysate respectively.

MDA-MB-231 cells = assay: Flow cytometry, western blotting and RT-PCR, MDA-MB-231 cells; type: cell-based, human
Experimental: as §1, §2
3.1.5 DNA fragmentation assay—After 24 hrs incubation with gamma-T3, 3×10^6 MDA-MB-231 cells were harvested and suspended in lysis buffer [5 mM Tris-HCl (pH 8.0), 20 mM EDTA, and 0.5% (v/v) Triton X-100] for 60 min on ice. Samples were centrifuged, the supernatants were removed and incubated with 5 μl RNase A (10 μg/ml) at 37° C. for 40 min, and 1 ml of anhydrous ethanol was added. Tubes were placed at […] for 20 min and then centrifuged to pellet the DNA. DNA samples were analyzed by electrophoresis at 80 V for 3 hrs on a 2% agarose gel containing ethidium bromide (0.2 μg/ml) and visualized under UV illumination.
3.1.6 Terminal deoxynucleotidyltransferase-mediated deoxyuridine triphosphate nick end-labelling (TUNEL) assay—DNA strand breaks during apoptosis was examined using in situ cell death detection reagent (Roche Applied Science). Briefly, 1×10^6 cells were pretreated with gamma-T3 for 24 hrs. Thereafter, cells were incubated with reaction mixture for 60 min at 37° C. Stained cells were analyzed and captured by fluorescence microscope on glass slide.
3.1.7 Flow cytometry was carried out as described above under item 1.1.3. Matrigel-invasion assay was carried out as described above under item 1.1.4. Western blotting was carried out as described above under item 1.1.5.
3.1.8 Id-1 RT-PCR—Total RNA was isolated using Trizol® reagent according to the manufacturer's protocol (Invitrogen). cDNA was synthesized using the SuperScript™ First Strand Synthesis System (Invitrogen) and was then amplified by PCR with Id-1 specific primers (forward primer, Id1-S, 5′-CTCCAGCACGTCATCGACTA-3′ and reverse primer, Id1-AS,5′-AAC GCA TGC CGC CTC-3′). PCR cycling protocol was as follows: 30 cycles of 10 min at 95° C., 30 s at 95° C., 30 s at 55° C., 1 min at 72° C. and 10 min at 72° C. Glyceraldehyde 3-phosphate dehydrogenase was amplified as an internal control. […]

[1] = system: PCa tumors (PC-3-Luc xenograft); assay: Immunohistochemistry of xenograft tumor tissues; set-up: species or system BALB/c athymic nude mice; conditions: mouse, in vivo
Experimental: 4.1.9 Immunohistochemistry—Tumor, liver, kidney, spleen, lung and heart of mice were fixed in 10% neutral buffered formalin for 12 h. After fixation, the tissue samples were processed into paraffin blocks. Tissue sections were cut at a thickness of 5 using Kedee microtome (China JINHUA Kedi Co., Ltd, Zhejiang, China), then deparaffinized in toluene and rehydrated from graded of alcohols to distilled water. Endogenous peroxidase activity was blocked by treating the sections with 0.6% hydrogen peroxide in methanol for 20 min, followed by antigen retrieval treatment. (Dako, Glostrup, Denmark). The sections were then incubated with peroxidase blocking solution (Dako, Glostrup, Denmark) for 1 h at 37° C. to remove any nonspecific antigens. The specimens were incubated overnight at 4° C. with primary rabbit polyclonal antibody against Snail (1:200), Id1 (1:250) (Abcam, Cambridge, UK), cleaved caspase-3 and cleaved PARP (1:50; Cell Signalling Technology, Inc., Beverly, Mass., USA) and mouse monoclonal antibody against proliferating cell nuclear antigen (PCNA), Ki-67, E-cadherin (1:50; Santa Cruz Biotechnology, Santa Cruz, Calif., USA). After several rinse in TBS, the sections were incubated with Dako REALT EnVisionT/HRP, Rabbit/Mouse solution for 1 h at 37° C. The reaction was visualized by Dako REALT DAB^+ chromogen. Mayer's haematoxylin (Dako, Glostrup, Denmark) was used as counter stain. Standard inverted light microscopy (Nikon, Tokyo, Japan) was used to analyze the slides.

SMILES: CC(C)=CCC/C(C)=C/CC/C(C)=C/CCC1(C)CCc2cc(O)c(C)c(C)c2O1 (centres unmarked) [γ-T3, 7,8-dimethyltocotrienol]
- JNK phosphorylation (C32 cells; C32): dosage-dependent increase in JNK phosphorylation activities
- NF-κB p65 activity (nuclear translocation) (C32 cells; C32): suppressed constitutive NF-κB p65 activity in a dose-dependent manner
- activation of pro-apoptotic proteins (cleaved products) (C32 cells; C32, different γ-T3 dosage, 24-hr): activation of procaspase 3, 7, 9 as well as PARP
- Id-1 and Id-3 expression levels (EGF-R similar) (C32 cells; C32, increasing dosages): significantly suppressed to almost undetectable level
- sub-G1 cell population (flow cytometry) (C32 cells; melanoma cells, γ-T3 at IC50, 24-hr): induction of sub-G1 cell population
- JNK phosphorylation (MDA-MB-231 cells; MDA-MB-231): dose-dependent increase in JNK phosphorylation activities
- Src phosphorylation, protein level of Smad1/5/8, LOX and activated Fak (MDA-MB-231 cells; MDA-MB-231): repressed in a dose dependent manner
- expression of Snail and Twist (MDA-MB-231 cells; MDA-MB-231): downregulated
- nuclear level of NF-κB p65 (MDA-MB-231 cells; MDA-MB-231): suppressed nuclear level of NF-κB p65 in a dose-dependent manner
- MAPK/ERK pathway (phosphorylation of Erk1/2, Mek1/2 and Elk1) (MDA-MB-231 cells; MDA-MB-231, 24 hours): activated
- activation of pro-apoptotic proteins (cleaved products) (MDA-MB-231 cells; MDA-MB-231, 24 hrs): activation of procaspase 3, 7, 8, 9 as well as PARP
- Id1 and Id3 expressions (EGF-R similar) (MDA-MB-231 cells; MDA-MB-231, increasing dosages): significantly suppressed to almost undetectable level
- sub-G1 cell population (flow cytometry) (MDA-MB-231 cells; gamma-T3 IC50-90, 24 hrs): induction of sub-G1 cell population
- E-cadherin expression in tumor sections [1]: up-regulated
- Snail expression in tumor sections [1]: down-regulated
- level of PCNA, Ki67 and Id-1 in tumors [1]: downregulated
- level of cleaved caspase 3 and PARP in tumors [1]: induced
